Data: US20080286815A1, “SPECTROPHOTOMETRIC ASSAY FOR HUMAN HISTONE DEACETYLASE 8” (THE UNIVERSITY OF AKRON, priority 2007, published 2008)
Values belong to the molecule of their own block, whether it stands above or below them. Ends that are not written are not given here.

Experiments:
[1] = tested on: HeLa nuclear extracts enriched in HDAC1 and 2; test: HPLC-based and DTNB-based assays with HeLa nuclear extracts; type: biochemical, human; details: for dethioacetylation by HeLa nuclear extracts: HDAC8 replaced with HeLa nuclear extracts, HPLC-based and DTNB-based assay formats; for kobs (deacetylation by HeLa nuclear extracts): 30 min; for kobs (deacetylation by HeLa nuclear extracts) / substrate turnover: HPLC analysis; for substrate turnover: at 30 min
Experimental: (§1) HPLC-based enzymatic assay. The HPLC data shown in FIG. 4 was generated using the following procedure. The HDAC8-catalyzed dethioacetylation reaction was performed in the same HDAC8 assay solution as above-described, except that no thioacetic acid was added but purified HDAC8 and its substrate (i.e. the above-described peptide ii) were added to final concentrations of 375 nM and 0.3 mM, respectively. An enzymatic reaction was initiated by the addition of HDAC8 at room temperature and was allowed to be incubated at room temperature until quenched at different time points with the following stop solution: 3.2 M guanidinium chloride in 100 mM of sodium phosphate (pH 6.8). One portion (40 uL) of the HDAC8 assay mixture was quenched with 80 uL of the above stop solution, and was analyzed as set forth above by RP-HPLC with a C18 analytical column (100 Å, 0.46×25 cm), eluting with the following gradient of double deionized water containing 0.05% (v/v) trifluoroacetic acid (mobile phase A) and acetonitrile containing 0.05% (v/v) trifluoroacetic acid (mobile phase B): linear increase from 0% B to 35% B from 0-40 min (1 mL/min), and ultraviolet (UV) monitoring at 214 nm. The enzymatically formed dethioacetylated product (i.e. the above-referenced peptide i) was confirmed by its comigration with the chemically synthesized authentic sample and by mass spectrometric analysis with MALDI-TOF, and was quantified by HPLC peak integration and comparison with that of the synthetic authentic sample. The same assay protocol was used when the HeLa nuclear extracts were used instead of human HDAC8. Nearly same assay protocols were used when purified HDAC1 and HDAC2 were employed instead of HDAC8, with the following exceptions: i) For HDAC1 assays, 50 mM Tris.HCl (pH 8.0) was used instead of 25 mM Tris.HCl (pH 8.0); ii) HDAC2 assays were performed at 30° C. instead of RT; iii) HDAC1 and HDAC2 assay solutions were all quenched with the following stop solution: 1.0 M HCl and 0.16 M acetic acid. These changes were instituted to more clearly assess the selectivity.
DTNB-based enzymatic assay. The DTNB data shown in FIG. 4 was generated using the following procedure. A second portion (300 µL) of the above HDAC8 assay mixture was quenched with 600 µL of the stop solution: 3.2 M guanidinium chloride in 100 mM of sodium phosphate (pH 6.8), and was analyzed by the DTNB-based assay procedure according to the invention, i.e. 60 min after the quench and DTNB (100 µL) addition, A412 was recorded for each sample derived at different time points of the same assay reaction. Again, the same assay protocol was used when the HeLa nuclear extracts were used instead of human HDAC8. To measure the kinetic parameters for the thioacetyl-lysine p53 peptide as an in vitro HDAC8 substrate, all the assay reactions contained 375 nM of HDAC8, a range of substrate concentrations varied around the Km value, and were allowed to proceed at room temperature for 1 hour before quenching. Reaction velocities were determined under initial condition (substrate turnover <10%). This experiment was performed twice, and each duplicate measurement agreed within 20%. By using a non-linear least squares approach with the computer program Kaleidagraph (Reading, Pa., USA), kinetic parameters (kcat and Km) were derived from the Michaelis-Menten plot based on the experimental data.
Assay with HeLa nuclear extracts. In order to examine the selectivity of our newly developed DTNB-based spectrophotometric assay among different classical HDAC enzymes, we initially performed both the HPLC-based and the DTNB-based assays with the HeLa nuclear extracts enriched in HDAC1 and 2. The procedures for the HDAC8 assay were followed.

purified human HDAC2 = purified human HDAC2 (Homo sapiens, UniProt Q92769); test: HPLC-based assay with purified HDAC2; type: biochemical; details: for dethioacetylation by HDAC2: purified HDAC2, 30° C., HPLC-based assay format
Sequence of purified human HDAC2 (Q92769 whole entry): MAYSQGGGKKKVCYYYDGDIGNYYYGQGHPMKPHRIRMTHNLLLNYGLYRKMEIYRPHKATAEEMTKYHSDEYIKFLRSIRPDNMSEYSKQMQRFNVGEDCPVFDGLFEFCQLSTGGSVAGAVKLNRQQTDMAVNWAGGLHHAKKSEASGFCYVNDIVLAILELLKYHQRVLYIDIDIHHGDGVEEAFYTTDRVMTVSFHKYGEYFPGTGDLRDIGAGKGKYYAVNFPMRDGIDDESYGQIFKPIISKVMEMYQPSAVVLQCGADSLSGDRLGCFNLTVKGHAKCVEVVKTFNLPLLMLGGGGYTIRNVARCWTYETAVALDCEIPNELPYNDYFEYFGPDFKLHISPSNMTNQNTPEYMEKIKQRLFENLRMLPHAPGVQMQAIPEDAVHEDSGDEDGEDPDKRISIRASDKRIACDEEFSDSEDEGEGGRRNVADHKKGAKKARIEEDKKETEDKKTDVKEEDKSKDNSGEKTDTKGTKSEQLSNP
Experimental: as §1, with “selectivity. […]” for “selectivity.”

purified human HDAC1 = purified human HDAC1 (Homo sapiens, UniProt Q13547); test: HPLC-based assay with purified HDAC1; type: biochemical; details: for dethioacetylation by HDAC1: purified HDAC1, HPLC-based assay format
Sequence of purified human HDAC1 (Q13547 whole entry): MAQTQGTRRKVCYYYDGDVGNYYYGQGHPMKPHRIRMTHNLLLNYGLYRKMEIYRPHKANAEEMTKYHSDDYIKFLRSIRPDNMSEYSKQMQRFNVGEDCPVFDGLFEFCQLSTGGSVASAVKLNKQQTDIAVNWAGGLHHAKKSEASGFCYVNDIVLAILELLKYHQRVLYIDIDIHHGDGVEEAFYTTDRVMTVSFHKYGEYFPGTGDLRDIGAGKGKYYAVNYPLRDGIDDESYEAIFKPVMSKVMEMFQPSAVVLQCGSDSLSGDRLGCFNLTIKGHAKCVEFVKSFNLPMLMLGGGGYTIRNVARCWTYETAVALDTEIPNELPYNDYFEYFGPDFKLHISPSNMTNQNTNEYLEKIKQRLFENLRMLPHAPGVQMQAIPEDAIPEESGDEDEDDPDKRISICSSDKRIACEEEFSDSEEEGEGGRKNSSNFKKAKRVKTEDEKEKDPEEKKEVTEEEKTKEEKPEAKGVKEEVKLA
Experimental: as §1, with “selectivity. […]” for “selectivity.”

[2] = listed as thioacetyl-lysin peptide

Molecule: AcNH—RH(ThAcK)(ThAcK)—CONH2
dethioacetylation by HeLa nuclear extracts [1]: no detectable dethioacetylation

Molecule: acetyl-lysine p53 peptide: human p53 C-terminal peptide (amino acid residue 372-389) containing Nε-acetyl-lysine at the 382 position (KKGQSTSRHKK(Ac)LMFKTEG; UniProt P04637 372-389, looked up, fragment)
kobs (deacetylation by HDAC2) (purified human HDAC2; purified HDAC2, at 30 min): 6.78 ± 2.39 min⁻¹
kobs (deacetylation by HeLa nuclear extracts) [1]: 0.23±0.01 uM/(min·4 uL of the nuclear extracts)
substrate turnover ([1]; 4 uL of the HeLa nuclear extracts (9 mg of protein per mL)): 2.3%
substrate turnover ([1]; 12 uL of the HeLa nuclear extracts (9 mg of protein per mL)): 6.5%
kobs (deacetylation by HDAC1) (purified human HDAC1; purified HDAC1, at 2 h): 0.41 ± 0.23 min⁻¹

dethioacetylation by HDAC2 (purified human HDAC2): no detectable dethioacetylation
dethioacetylation by HDAC2 (purified human HDAC2; [2]): did not serve as a substrate
dethioacetylation by HDAC1 (purified human HDAC1): no detectable dethioacetylation
dethioacetylation by HDAC1 (purified human HDAC1; [2]): did not serve as a substrate
Molecule: CSCC[C@H](NC(=O)[C@H](CC(C)C)NC(=O)[C@H](CCCCNC(C)=S)NC(=O)[C@H](CCCCN)NC(=O)[C@H](Cc1c[nH]cn1)NC(=O)[C@H](CCCNC(=N)N)NC(=O)[C@H](CO)NC(=O)[C@@H](NC(=O)[C@H](CO)NC(=O)[C@H](CCC(N)=O)NC(=O)CNC(=O)[C@H](CCCCN)NC(=O)[C@@H](N)CCCCN)[C@@H](C)O)C(=O)N[C@@H](Cc1ccccc1)C(=O)N[C@@H](CCCCN)C(=O)N[C@H](C(=O)N[C@@H](CCC(=O)O)C(=O)NCC(=O)O)[C@@H](C)O [thioacetyl-lysine p53 peptide, H2N-KKGQSTSRHK(ThAcK)LMFKTEG-COOH]
dethioacetylation by HeLa nuclear extracts [1]: no detectable dethioacetylation
dethioacetylation by HeLa nuclear extracts ([1]; listed as thioacetyl-lysine peptide): did not serve as a substrate

Molecule: AcNH—RH(AcK)—(AcK)—CONH2
kobs (deacetylation by HeLa nuclear extracts) [1]: 0.29±0.02 uM/(min·4 uL of the nuclear extracts)
